These results are taken from paper PMC6479694, “Studies on the Interaction between Poly-Phosphane Gold(I) Complexes and Dihydrofolate Reductase: An Interplay with Nicotinamide Adenine Dinucleotide Cofactor” (International Journal of Molecular Sciences, 2019).

The structures appear in SMILES notation. Read-outs that look alike come from different tables or passages of the source.

In one data set the test system is DHFR. Also noted: method as in PMID 17920, PMID 12359872. The following applies: cited from earlier work.
The nature of data set [1]: UV-visible spectroscopy stability test in Hepes/methanol solution. Format: physicochemical. The conditions noted are these: 11.85 µM, Hepes/methanol 80:20, 30 °C, one hour, every 3 minutes. The protocol:
The preparation of the gold compounds was performed according to methods already published and was based on the substitution of the labile ligand from the gold precursor [AuCl(Me2S)], by mean of a more coordinative ligand, such as the PPh3 or its modified analogs, ^4L and ^2L. Mole ratio with an excess of the phosphane ligand was pursued with the aim to enhance the reaction yield for tris-phosphane compounds. The solids obtained by crystallization were characterized by elemental analysis, ^1H and ^31P NMR, IR, and ESI Mass spectrometry. The stability of the stock solutions upon dilution was checked by recording UV-visible spectra (see Supplementary Material, Figures S1 and S2). The reactants for the ester reaction and ^4L or ^2L ligands were bought from Aldrich and used without any purification. Methanol or methylene chloride solvents were degassed and dried over molecular sieves.
UV-visible spectroscopy stability tests of compounds 4L3AuCl, 4L2AuCl, and 2L2AuCl on […]
Acquisitions of the absorptions in the range of 200–700 nm of the tested solutions were led for an hour lapse every 3 minutes in 11.85 µM concentration of 4L3AuCL (figure S1), 4L2AuCl, and 2L2AuCl (figure S2) at 30 °C. The stability was tested in Hepes/methanol 80:20, which are the same conditions used for the inhibition tests.
Figure S1. UV-visible spectra for 11.85 µM of 4L3AuCl in hepes/methanol
(1 picture or pasted object on this page, not shown here)

Data set [2] deals with T1, DHFR from E. coli (Escherichia coli, UniProt P0ABQ4).
T1 construct: made in house
Description: Inhibition of DHFR-catalysed reduction of H2F to H4F, spectrophotometric at 340 nm, Dixon plot. Format: biochemical. The conditions noted are these: pH 7.3, 30 °C, saturating NADPH, H2F 1.5-10 µM, Hepes/methanol. The protocol:
The phosphane gold(I) compounds were used to prepare buffered stock solutions at pH = 7.3 at 30 °C for the inhibition tests of DHFR from E coli. In Table 1, the list of the gold(I) compounds used for the tests and the corresponding inhibition constants are reported.
The inhibition action of the gold phosphane compounds was tested in regards to the reduction of H2F to H4F reaction, catalyzed by DHFR [2]. The inhibition tests were led by analyzing the reciprocal reaction rate upon the addition of Hepes/methanol solutions of gold compounds in different set of tests in the saturated concentration of NADPH. The tests were repeated with different amounts of dihydrofolate (DHF) (1.5 ÷ 10 µM).
The standard deviations were calculated for a minimum of three determinations. (1) 1/ν=Km/VmaxKi[S]∗[I]+1/Vmax(1+Km/[S])
The activity of the DHFR was followed by recording the absorbance with a Shimadzu UV-2450 (UV-Vis spectrophotometer). The enzyme assays were made in a quartz cuvette by using similar experimental conditions: DHFR 3-5 nM, NADPH 60–80 μM, and H2F 1.5, 4, and 10 μM. The procedure consisted in the preparation of the following mixtures: 800–971 µL of 50 mM Hepes buffer at pH = 7.3, 20 μL of NADPH, 10 µl of DHFR, and increasing quantities of gold(I) compounds stock solutions in order to achieve higher accuracy in the measurement of the inhibitory effect. After storing the mixture for 5 min at 30 °C, 4–33 µL of H2F was added. The decreasing absorbance at 340 nm, due to the oxidation of NADPH to NADP^+, was detected after adding the H2F, and expressed in U mL^−1 using the equation: U·mL^−1 = Δabs/Δt/11.8 × dilution factor, where 11.8 is the mMolar extinction coefficient when NADPH and H2F are simultaneously present in solution. The Ki values were calculated with the Dixon plot from the second plot obtained computing the slope values against the reciprocal of the H2F concentrations.

The next data set deals with T2, DHFR/NADPH (Escherichia coli, UniProt P0ABQ4).
T2 construct: made in house
The experiment in a line: Fluorimetric binding assay on DHFR in presence of saturating NADPH. The conditions noted are these: 25 °C, saturating NADPH (50 µM); read-out: Kd ± s.d. (25 °C) in presence of saturating NADPH. The text has this: After these preliminary emissive property characterizations, the fluorimetric studies were led in the presence of the enzyme DHFR and the cofactor NADPH [26]. […] Additionally, NADPH is fluorescent, with an absorption maximum at about 340 nm and an emission maximum at about 450 nm. […] Moreover, because NADPH has a maximum of absorption at 340 nm, significant energy transfer from the excited tryptophan of the enzyme to bound NADPH occurs; as a consequence, a new emission at 420–450 nm is then observed. Figure 8 reports the progressive quenching of the DHFR and NADPH emissions by stepwise adding of solution of ^4L3AuCl. Moreover, a slight shift of the typical emission at […] (λexc = 280 nm) is observed.
(§1) The fluorimetric analysis was performed using a 1 mL quartz cuvette and a Perkin–Elmer Fluorescence Spectrometer LS 55. For all the analysis we used 5–12 µM solutions of DHFR and increasing concentrations of gold(I) compounds in the 4–60 µM range. For some experiments, saturating concentrations of NADPH (50 µM) were added to the initial solutions of DHFR to observe the affinity variation of the complexes with respect to the DHFR.
(§2) The fluorimetric data were analyzed using the binding isotherm (Equation (2)), where [Q] is the concentration of the added quenching ligand, F is the measured fluorescence, F0 is the starting fluorescence, Fc is the fluorescence of the fully complexed protein, Kd is the dissociation constant, and n is the Hill coefficient. Indeed, n is a phenomenological parameter, an interaction coefficient, such as when n = 1 the equation describes a complex formation with one site of interaction, when n = 2 binding occurs with a dimer, when 1 < n < 2 a cooperative interaction occurs. (2) F0−F/F−Fc=[Q]^n/(Kd+[Q])^n

For data set [3], the target named is T1, DHFR from E. coli. The experiment in a line: Fluorimetric binding assay, quenching of DHFR tryptophan emission (λexc = 280 nm). The following applies: for Kd: without NADPH. Here is the method: The Hepes/methanol solutions of the gold(I) compounds were used for the fluorimetric assays (see materials and methods section) regarding DHFR from E. coli. The emission’s maximum of DHFR was detected at 344 nm upon excitation at 280 nm; by adding additional amounts of the gold complex in Hepes/methanol solutions (ranging among 4 ÷ 50 µM), the quenching of this emission intensity was observed. In Figure 3, spectra showing the effect of ^4L3AuCl on DHFR emission are reported. It is possible to observe the quenching of the Tryptophan’s emission and the corresponding increase of the intrinsic phosphorescence of the gold compound.
as §1
All the spectra were recorded in the range between 250 and 600 nm using an excitation wavelength characteristic of the Tryptophan, equal to 280 nm. For most of the experiments the temperature was kept constant at 25 °C; furthermore, to analyze the thermodynamic aspects of the reactions (via the van’t Hoff equation), quenching spectra of DHFR in presence of the gold(I) complexes were recorded at −4 and 10 °C as well.
as §2

Setting [4] is: van't Hoff equation from Kd at 25, 10 and −4 °C.

As to `CN(Cc1cnc2nc(N)nc(N)c2n1)c1ccc(C(=O)N[C@@H](CCC(=O)O)C(=O)O)cc1` [Methotrexate], the “stronger bond to DHFR than DHF (factor)” value in the data set with DHFR is recorded as 10^3.
In the case of `O=C(O)c1ccc(P(c2ccccc2)c2ccccc2)cc1.O=C(O)c1ccc(P(c2ccccc2)c2ccccc2)cc1.O=C(O)c1ccc(P(c2ccccc2)c2ccccc2)cc1.[Cl][Au]` [^4L3AuCl, [tris(4-benzoate-diphenylphosphanyl)-gold(I)chloride]], the “Stability of the solution (UV-visible spectra 200–700 nm)” value in data set [1] was “no overall changes in solution over”. Also, the affinity at DHFR from E. coli [2], expressed as Ki, was 4.6 ± 0.5 µM. In addition, the equilibrium dissociation constant (Kd) at DHFR/NADPH was 5.05 ± 2.7 µM; at DHFR from E. coli [3] (10 °C, read-out: Kd ± s.d. (10 °C) (converted)), 3.32 µM; on DHFR from E. coli [3] (25 °C, Hepes/methanol, read-out: Kd ± s.d., T = 25 °C), 3.84 ± 0.29 µM; at DHFR from E. coli [3] (−4 °C, read-out: Kd ± s.d. (−4 °C) (converted)) it was 2 µM. Also, the “n = Hill coefficient” value at DHFR from E. coli [3] (25 °C, when not specified n = 1) is recorded as 1.73. For the same compound, the “TΔS°” value at DHFR from E. coli [3] (from van't Hoff analysis) came out at 2.19 ± 0.1 kcal/mol. Moreover, the “ΔG°” value on DHFR from E. coli [3] (standard free energy equation from ΔH° and TΔS°) was -7.23 ± 0.12 kcal/mol. Also, the “ΔH°” value at DHFR from E. coli [3] (setting [4]) was -5.04 ± 0.08 kcal/mol. In addition, the “ΔS°” value at DHFR from E. coli [3] (setting [4]) is 7.34 ± 0.005 cal/mol K.
